The values that follow come from patent publication US6342508B1, “N-hydroxy-2-(Alkyl,Aryl or Heteroaryl sulfanyl, sulfinyl or sulfonyl) 3-substituted alkyl, aryl or heteroarylamides as matrix metalloproteinase inhibitors” (American Cyanamid Company, priority 1997, dated 2002).

Where a name gives a salt, the structure may show the parent alone.

The term melting point denotes the temperature, or range, at which the solid turns liquid. With `COc1ccc(S(=O)(=O)C(C)(Cc2ccc(OCCN(C(C)C)C(C)C)cc2)C(=O)NO)cc1` (stereo not drawn) (as salt: HCl) [Example 20, N-Hydroxy-2-(4-methoxy-benzenesulfonyl)-2-methyl-3-[4-(2-N,N-diisopropylamino-ethoxy)-phenyl]-propionamide], the melting point came out at 98 °C.
With `CCN(CC)CCOc1ccc(CC(C)(C(=O)NO)S(=O)(=O)c2ccc(OC)cc2)cc1` (stereo not drawn) (as salt: HCl) [Example 21, N-Hydroxy-2-(4-methoxy-benzenesulfonyl)-2-methyl-3-[4-(2-N,N-diethylamino-ethoxy)-phenyl]-propionamide], the melting point was 56 to 59 °C.
The same measure for `COc1ccc(S(=O)(=O)C(C)(Cc2ccc(OCCCN3CCN(c4cccc(Cl)c4)CC3)cc2)C(=O)NO)cc1` (stereo not drawn) (as salt: HCl) [Example 23, 3-(4-{3-[4-(3-Chloro-phenyl)-piperazin-1-yl]-propoxy}-phenyl)-N-hydroxy-2-(4-methoxy-benzenesulfonyl)-2-methyl-propionamide]: 122 °C; for `COc1ccc(S(=O)(=O)C(CCC(C)C)(Cc2cccnc2)C(=O)NO)cc1` (stereo not drawn) (as salt: HCl) [Example 69, 2-(4-Methoxy-benzenesulfonyl)-5-methyl-2-pyridin-3-ylmethyl-hexanoic acid hydroxyamide]: 62 °C; for `COc1ccc(CN2CCC(C(=O)NO)(S(=O)(=O)c3ccc(OC)cc3)CC2)cc1` (as salt: HCl) [Example 101, 4-(4-methoxy-benzenesulfonyl)-1-(4-methoxy-benzyl)-piperidine-4-carboxylic acid hydroxyamide]: 175 °C.
As for `COc1ccc(CCN2CCC(C(=O)NO)(S(=O)(=O)c3ccc(OC)cc3)CC2)cc1` (as salt: HCl) [Example 102, 4-(4-methoxy-benzenesulfonyl)-1-[2-(4-methoxyphenyl)-ethyl]-piperidine-4-carboxylic acid hydroxyamide], the melting point was 206 °C.
With `COc1ccc(S(=O)(=O)C2(C(=O)NO)CCN(CCc3ccccc3)CC2)cc1` (as salt: HCl) [Example 103, 4-(4-methoxy-benzenesulfonyl)-1-(2-phenyl-ethyl)-piperidine-4-carboxylic acid hydroxyamide], the melting point amounted to 205 °C.
The compound `CCCCOc1ccc(S(=O)(=O)C2(C(=O)NO)CCN(Cc3ccc(OC)cc3)CC2)cc1` (as salt: HCl) [Example 104, 4-(4-n-Butoxy-benzenesulfonyl)-1-(4-methoxy-benzyl)-piperidine-4-carboxylic acid hydroxyamide] gave a melting point of 173 °C.
The compound `COc1ccc(S(=O)(=O)C2(C(=O)NO)CCN(CCOc3ccccc3)CC2)cc1` (as salt: HCl) [Example 107, 4-(4-methoxy-benzenesulfonyl)-1-(2-phenoxy-ethyl)-piperidine-4-carboxylic acid hydroxyamide] had a melting point of 168 to 172 °C.
The same measure for `CCCCOc1ccc(S(=O)(=O)C2(C(=O)NO)CCN(CCOc3ccccc3)CC2)cc1` (as salt: HCl) [Example 108, 4-(4-n-Butoxy-benzenesulfonyl)-1-(2-phenoxy-ethyl)-piperidine-4-carboxylic acid hydroxyamide]: 112 °C; for `COc1ccc(S(=O)(=O)C2(C(=O)NO)CCN(Cc3ccc(OCCN4CCCCC4)cc3)CC2)cc1` (as salt: HCl) [Example 109, 4-(4-Methoxy-benzenesulfonyl)-1-[4-(2-piperidin-1-yl-ethoxy)-benzyl]-piperidine-4-carboxylic acid hydroxyamide]: 114 °C.
`COc1ccc(S(=O)(=O)C(Cc2cccnc2)(CC2CCCCC2)C(=O)NO)cc1` (stereo not drawn) (as salt: hydrochloride) [Example 65, 3-Cyclohexyl-N-hydroxy-2-(4-methoxy-benzenesulfonyl)2-pyridin-3-ylmethyl-propionamide] displayed a melting point of 57 to 60 °C.
